Several values for one entry are separate records, joined by “and”; a condition that tells them apart may be missing. Equal values may be shown once. Entries after “also recorded” stand apart in the source; their conditions may differ.
Legend:
[1] = Total plasma cholesterol at end of feeding study; type: in vivo, C57BL/6J mice; settings: high fat control 156.4, normal diet 120.5
Protocol: Collection of serum, liver and adipose tissue. The feeding was terminated after 12 weeks.
Determination of Plasma Cholesterol: The total plasma cholesterol was analyzed by Clinical Pathology Laboratory at the Diagnostic Center for Population and Animal Health, College of Veterinary Medicine, Michigan State University according to the established standard analytical protocol for total cholesterol.

[2] = for plasma insulin level: end of feeding, controls 0.47 and 0.41 ng/mL
Protocol: Collection of serum, liver and adipose tissue. The feeding was terminated after 12 weeks. The animals were then anesthetized by using isoflurane, sacrificed and blood was collected by cardiac puncture in heparinized tubes. The plasma was separated by centrifugation at 1600×g for 10 min at 4° C., frozen immediately and stored at −20° C. until use. […] All tissues were then transferred from liquid nitrogen and stored at −80° C. until analyses.
Radio Immuno Assay (RIA). The plasma insulin levels were measured by rat insulin RIA kit purchased from LINCO Research Inc. (St. Charles, Mo.). The insulin standards (100 aliquots) were pipetted to 12×75 mm test tubes. A total of 10 concentrations of insulin, ranging from 0.1-10 ng/mL, were used to determine the standard curve. The plasma samples (aliquots of 1-25 μl) were added to test tubes and the assay buffer was added to attain a total sample volume of 100 μl. The ^125I labeled insulin and anti rat insulin antibody (100 μL each) were added to the tubes, mixed and incubated at 4° C. After 24 h, the precipitating reagent (1 mL) was added and incubated again at 4° C. for 20 min to precipitate the insulin bound to the antibody. The tubes were then centrifuged for 20 min at 3000 g, decanted and the radioactivity was measured using a gamma counter.

[3] = Glucose tolerance test (i.p. glucose 2 g/kg) in high fat diet fed mice; type: in vivo, C57BL/6J mice; settings: for blood glucose level after 90 min of glucose load: 90 min after 2 g/kg i.p. glucose, high fat control 363, normal diet 190
Protocol: Glucose Tolerance Test (GTT). The glucose tolerance test was performed on five animals from each group (n=5) after 6 weeks of supplementation. The blood glucose level was measured at time 0 (min) with a Free Style Flash (TheraSense, Inc., CA) handheld glucometer using the test strips (Free Style, TheraSense, Inc., CA). For GTT, a sterile solution containing 2 g of glucose per kg body weight was injected intraperitoneally (i.p.). The tail vein blood was collected and glucose levels measured at 5, 10, 15, 30, 60, and 90 min, respectively. The blood glucose levels were plotted against the time (FIG. 3).

[4] = Body weight of C57BL/6J mice on high fat diet, 12-week feeding study; type: in vivo; settings: for weight gain during the treatment period: 8 weeks of treatment in high fat diet, high fat control 9.76 g; for overall weight gain during the experimental period: 12 weeks, high fat control 18.98 g; for weight loss: compared to the high fat diet controls; for body weight: high fat diet with compound, high fat control 36.91 g, normal diet 31.5 g
Protocol: Animals and Diet: Male C57BL/6J mice, 4 weeks old, were purchased from Jackson Laboratories (Bar Harbor, Me., USA). The mice were individually housed under controlled temperature (70° F.) and 12 h light-dark cycles. The mice (n=40) had free access to water and laboratory non-purified diet for 5 days. After acclimatization, the mice were randomly divided into groups 1-5 (n=8) for the study. The experiments were carried out according to the ethical guidelines of University Laboratory Animal Resources (ULAR) at Michigan State University, East Lansing, Mich. The diets, 10% K. Cal. (normal) and 60% K. Cal. (high fat), were purchased from Research Diets (New Brunswick, N.J.). The controls were groups 1 and 2 and received normal (10% K. Cal.) and high fat (60% K. Cal.) diets, respectively, throughout the study. The food was prepared for each treatment separately by mixing 1 g of pure anthocyanin mixture, 500 mg each of betulinic and ursolic acids per kilogram high fat diet. The treatment groups, 3-5, were fed initially for 4 weeks with the high fat diet and then switched to the diet containing anthocyanins, betulinic acid or ursolic acids. Food was changed at intervals of three days to avoid oxidation of the fat or compounds. The daily food intake (FIG. 1) and the weekly body weight for each animal were determined throughout the study (FIG. 2A-C).

INS-1 832/13 cells = assay: Insulin secretion by INS-1 832/13 pancreatic beta cells (RIA, normalized to cellular protein); type: cell-based, rodent; settings: for fold increase in insulin secretion: vs untreated cells; for increase in insulin secretion: increase over untreated cells
Protocol: Insulin Secretion Studies. INS-1 832/13 cells (kindly provided by Dr Christopher Newgard, Duke University, N.C.) were routinely cultured in 5% CO2/air at 37° C. in RPMI-1640 medium containing 11.1 mM glucose and supplemented with 10% FBS (Fetal Bovine Serum), 10 mM HEPES, 100 U/ml penicillin, […] streptomycin, 4 mM Glutamine, 1 mM sodium pyruvate, and 50 μM 2-mercaptoethanol. Cells were passed weekly after trypsin-EDTA detachment. For static secretion studies, cells were plated on 24 well plates at a density of 0.64×10^6 cells per well and grown for 24 h. The cells were then cultured for an additional 24 h in RPMI-1640 containing 4 mM glucose and the supplements described above. Cells were then incubated twice for 30 min in Krebs Ringer Bicarbonate buffer (KRBB) containing 4 mM glucose and 0.1% BSA. Cells were rapidly washed with KRBB and incubated for 60 min KRBB containing 4 or 10 mM glucose with or without the indicated anthocyanins or anthocyanidins. The medium was then removed for determining insulin release. The cells were then washed twice with PBS and dissolved in 1 M NaOH. Cellular protein concentration was then determined by Lowry assay. Anthocyanins and anthocyanidins were dissolved in DMSO to obtain desired concentrations. Final concentration of DMSO was 0.1%. The insulin secreted into the medium by the cells was determined by radioimmuno assay and normalized to total cellular protein.
Radio Immuno Assay (RIA). The Kit for RIA was purchased from LINCO Research Inc. (St Charles, Mo.), and the assay was conducted according to the manufacturer's directions. Briefly, 0.1-10 ng of insulin standards (100 μl) were added to 12×75 mm test tubes. Similarly, samples (25 μl) from the insulin secretion studies were also added to the test tubes. To this, an aliquot (75 μl) of assay buffer was added. The ^125I labeled insulin (100 μl) was then added to each test tube. […] The tubes were then centrifuged and the radioactivity was measured using a gamma counter.
Lowry protein Assay. The amount of protein in the assay wells was determined by Lowry method. The Lowry assay solution was prepared by combining the Lowry solution, CuSO4.5H2O (1%), and sodium tartarate (1%). Briefly, the protein sample (100 μl) and Lowry mixture (1 mL) were mixed in a test tube (12×75). The Folin-Ciolatues reagent (100 μl) was added to these tubes, mixed, and incubated for 30 min at room temperature. The optical density of resulting solutions was read at 700 nm using a UV spectrophotometer.

[5] = 4 and 10 mM glucose, or glucose level not specified

## C=C(C)[C@@H]1CC[C@]2(C(=O)O)CC[C@]3(C)[C@H](CC[C@@H]4[C@@]5(C)CC[C@H](O)C(C)(C)[C@@H]5CC[C@]43C)[C@@H]12 [betulinic acid]
[1]
  plasma cholesterol level: 126.5 ± 14.01 mg/dL
[2]
  plasma insulin level: 460 ± 93.68 ng/mL and 460.86 ± 193.68 ng/mL
[3]
  blood glucose level after 90 min of glucose load: 317.8 ± 21.9 mg/dL
[3]; before glucose load, high fat control 119.8
  blood glucose level at zero time: 123.4 ± 6.0 mg/dL
[4]
  weight gain during the treatment period: 7.73 ± 0.44 g
  overall weight gain during the experimental period: 15.16 g
  weight loss: 21%
  body weight: 33.54 g
[4]; listed as 2 (group 4)
  weight gain during the treatment period: 7.73 g

## Oc1cc(O)c2cc(O)c(-c3ccc(O)c(O)c3)[o+]c2c1 [cyanidin]
INS-1 832/13 cells; 4 mM glucose, 50 μg/mL
  insulin secreted: 29 ng/mg of protein
  fold increase in insulin secretion: 1.5 fold
INS-1 832/13 cells; 10 mM glucose, 50 μg/mL
  insulin secreted: 88 ng/mg protein

## Oc1cc(O)c2cc(O)c(-c3cc(O)c(O)c(O)c3)[o+]c2c1 [delphinidin]
INS-1 832/13 cells; 4 mM glucose, 50 μg/mL
  increase in insulin secretion: 6 ng/mg of protein

## Oc1ccc(-c2[o+]c3cc(O)cc(O)c3cc2O)cc1 [pelargonidin]
INS-1 832/13 cells; 4 mM glucose, 50 μg/mL
  insulin secreted: 49 ng/mg of protein
  fold increase in insulin secretion: 1.4 fold
INS-1 832/13 cells; 10 mM glucose, 50 μg/mL
  insulin secreted: 91 ng/mg protein
  fold increase in insulin secretion: 1.2 fold

## anthocyanins
[2]; mouse, in vivo
  hypoglycemia: without causing hypoglycemia

## OCC1OC(Oc2cc3c(O)cc(O)cc3[o+]c2-c2ccc(O)cc2)C(O)C(O)C1O (stereo not shown) [pelargonidin-3-galactoside]
INS-1 832/13 cells; 4 mM glucose
  effect on insulin secretion (in words): did not increase the insulin secretion
INS-1 832/13 cells; [5]
  effect on insulin secretion (in words): did not induce insulin secretion

## OC[C@H]1O[C@@H](Oc2cc3c(O)cc(O)cc3[o+]c2-c2ccc(O)c(O)c2)[C@H](O)[C@@H](O)[C@H]1O [cyanidin-3-galactoside]
INS-1 832/13 cells; 4 mM glucose
  effect on insulin secretion (in words): did not increase the insulin secretion
INS-1 832/13 cells; 10 mM glucose, 50 μg/mL
  increase in insulin secretion: 17 ng/mg of protein
  fold increase in insulin secretion: 1.2 fold
INS-1 832/13 cells; [5]
  effect on insulin secretion (in words): significant increase in insulin secretion

## COc1cc(-c2[o+]c3cc(O)cc(O)c3cc2O)cc(O)c1O [petunidin]
INS-1 832/13 cells; 4 mM glucose, 50 μg/mL
  increase in insulin secretion: 4 ng/mg of protein

## C[C@H]1[C@H](C)CC[C@]2(C(=O)O)CC[C@]3(C)C(=CC[C@@H]4[C@@]5(C)CC[C@H](O)C(C)(C)[C@@H]5CC[C@]43C)[C@H]12 [ursolic acid]
[2]
  plasma insulin level: 52.25 ± 8.84 ng/mL and 52.25 ± 18.84 ng/mL
[3]
  blood glucose level after 90 min of glucose load: 227 ± 22.982 mg/dL
[3]; after glucose injection
  time at which blood glucose concentration reached the maximum: 60 min
[3]; high fat diet fed mice
  glucose tolerance / insulin resistance (in words): corrected glucose levels similar to control group animals fed on normal diet; also recorded: overcame the insulin resistance; also recorded: glucose absorption was slow
[4]; listed as 3 (group 5)
  weight gain during the treatment period: 8.78 g
[4]
  overall weight gain during the experimental period: 17.45 g
  weight loss: not significant
  body weight: 34.89 g
[4]; compared to high fat diet control
  effect on body weight (in words): did not decrease bodyweight of the treated animals significantly

## OC[C@H]1O[C@@H](Oc2cc3c(O)cc(O)cc3[o+]c2-c2ccc(O)c(O)c2)[C@H](O)[C@@H](O)[C@@H]1O [cyanidin-3-glucoside]
INS-1 832/13 cells; 4 mM glucose
  effect on insulin secretion (in words): less active than delphinidin-3-glucoside
INS-1 832/13 cells; 4 mM glucose, 5 μg/mL, untreated cells 33
  insulin secreted: 46 ng of insulin per mg protein
INS-1 832/13 cells; 4 mM glucose, 50 μg/mL
  increase in insulin secretion: 9 ng/mg of protein
  fold increase in insulin secretion: 1.3 fold
INS-1 832/13 cells; 4 mM glucose, 10, 50, 100 and 250 μg/mL
  dose dependent insulin secretion (in words): no significant difference in insulin secretion
INS-1 832/13 cells; 10 mM glucose
  effect on insulin secretion (in words): more active
INS-1 832/13 cells; 10 mM glucose, 50 μg/mL
  insulin secreted: 119 ng/mg protein
  fold increase in insulin secretion: 1.43 fold
INS-1 832/13 cells; [5]
  effect on insulin secretion (in words): most effective insulin secretagogues

## OC[C@H]1O[C@@H](Oc2cc3c(O)cc(O)cc3[o+]c2-c2cc(O)c(O)c(O)c2)[C@H](O)[C@@H](O)[C@@H]1O [delphinidin-3-glucoside]
INS-1 832/13 cells; 4 mM glucose, 50 μg/mL
  insulin secreted: 49 ng/mg of protein
  fold increase in insulin secretion: 1.8 fold
INS-1 832/13 cells; 10 mM glucose, 50 μg/mL
  insulin secreted: 113 ng/mg protein
  fold increase in insulin secretion: 1.4 fold
INS-1 832/13 cells; [5]
  effect on insulin secretion (in words): most effective insulin secretagogues; also recorded: significantly induced the insulin secretion
INS-1 832/13 cells; 4 and 10 mM glucose, or glucose level not specified, listed as Delphinidin-3-glucoside
  effect on insulin secretion (in words): most active anthocyanin tested

Source: US20120283203A1, “METHODS AND COMPOSITIONS FOR THE TREATMENT OF OBESITY, INSULIN RELATED DISEASES AND HYPERCHOLESTEROLEMIA” (Board of Trustees of Michigan State University, priority 2005, published 2012)
